Laboratory results published in US7153525B1, “Microemulsions as precursors to solid nanoparticles” (The University of Kentucky Research Foundation, priority 2000, dated 2006).

Tests used:
[1] = Solubility of fluorosurfactants in perflubron; details: PDFOA at 25° C.
[2] = Droplet and particle size by photon correlation spectroscopy; assay type: physicochemical
Description: Modeling of E/F microemulsions: An ethanol-in-fluorocarbon(E/F) microemulsion was made having the following components: perflubron (0.7382 g), PDFOA (0.3195 g), and ethanol (0.3603 g). The weight of ethanol corresponded to 25.4% w/w of the final microemulsionor 65.7% of the microemulsion window (see FIG. 2). The average droplet size of 34.9 nm determined by photon correlation spectroscopy (dynamic light scattering at 11.3° for 300 seconds) agreed very well with the predicted ethanol droplet size based on simple mathematical modeling of surfactant-coated ethanol droplets. The total surface area of ethanol droplets that have an average diameter of 34.9 nm can be calculated in a series of equations as follows: Volume of one ethanol droplet=πd^3/6=2.226×10^−17 cm^3 (Equation 1) Total number of ethanol droplets=(0.3603 g[…])/[…]=1.989×10^16 droplets (Equation 2) Total surface area of each droplet=πd^2=3.827×10^−11 cm^2 (Equation 3) Total surface area of all ethanol droplets=1.989×10^16 droplets*3.827×10^−11 cm^2=760966 cm^2. (Equation 4) If we assume that PDFOA head-group (Mw 414.06 g/mol) occupies a space of 30 Å^2, then we can calculate the number of PDFOA molecules needed to cover the total surface area of all ethanol droplets from Equation 4 as: Total number of PDFOA molecules needed to cover the total surface area of all ethanol droplets=760966 cm^2/30×10^−16 cm^2=2.537×10^20 molecules of PDFOA. (Equation 5) Thus, 2.537×10^20 molecules of PDFOA would theoretically be needed to coat all of the surface area provided by all of the ethanol droplets. The ratio of ethanol to PDFOA molecules 65.7% through the microemulsion window was 10:1. […] The actual amount of PDFOA used to prepare the microemulsion was 0.3195 g which was within 3% of the predicted amount (0.3195 g/0.3282 g=0.973 or 97.3%) based on the measured droplet size of ethanol. Thus, this simple modeling supports the formation of a E/F microemulsion as well as the particle sizing method used.
To determine the existence of an oil-in-water microemulsion window for the microemulsion precursor, exactly two (2) milligrams of emulsifying wax were weighed accurately into ten separate 7-mL glass vials and melted at 50° C. on a temperature calibrated magnetic hot plate. Water (0.2 μm filtered) was then added (750–1000 μL) to form a homogeneous milky slurry in the stirring water at 50° C. To form the microemulsion precursor, the surfactant polyoxy 20 stearyl ether (100 mM) in water was added (0–250 μL) so that the final surfactant concentration ranged from 0 mM to 25 mM in the ten vials. The microemulsion precursor was then removed from heat (52–54° C.) and allowed to cool to 25° C. while stirring. […] Thus, an apparent microemulsion window was defined. One hundred (100) μL of each cooled system was taken and diluted with 900 μL water. The particle size of the diluted solid nanoparticles was determined using a Coulter N4 Plus Sub-Micron Particle Sizer at 20° C. by scattering light at 90° for 120 seconds. The particle sizes of systems with no surfactant added could not be determined since the systems contained precipitates that were greater than 3000 nm in diameter. […] To determine if the measured droplet sizes in either the microemulsion nanotemplate or the cured solid nanoparticles were due to the presence of surfactant micelles, samples were made as described above with no emulsifying wax and with final surfactant concentrations ranging from 0 mM to 100 mM in water. […] It is likely that the relatively heterogeneous nature of the polymeric surfactant makes the determination of its CMC difficult using conventional techniques. Photon correlation spectroscopy, using a Coulter N4 Plus Submicron Particle Sizer, was used to determine the existence and the size of the surfactant micelles.
Preparation of cationic nanoparticles made from microemulsion precursors: Exactly 2 mg of emulsifying wax was placed into six 7-ml glass scintillation vials. […]

[3] = Pseudo-phase diagram fluorosurfactant screen: ethanol incorporation in E/F microemulsions; assay type: physicochemical; details: maximum ethanol in stable clear E/F microemulsion
Description: Pseudo-Phase Diagrams: Fluorosurfactant Screen. Studies focused on E/F microemulsions that allowed for maximum solubilization of ethanol. […] Briefly, a small amount of ethanol was added to defined perflubron (X %)/(fluorosurfactant) (100-X %) mixtures in an attempt to solubilize ethanol and define the microemulsion window (i.e., portion of diagram that represents a clear system). […] While the mixture was stirring, ethanol was added in 5 μL (=[…] ethanol) aliquots. The clarity (transparency) of the systems as a function of the percentages of the three phases was plotted in order to define the microemulsion window, if any. This screen was repeated for each of the fluorosurfactant candidates.

Molecule	Solubility in perflubron [1]	Final (Ethanol) % w/w Solubilized in Perflubron/Fluorosurfactant (70/3 w/w) [3]	further results
OCCC(F)(F)C(F)(F)C(F)(F)C(F)(F)C(F)(F)C(F)(F)F [D3, Tridecafluoro-1-octanol]	soluble		
O=C(O)C(F)(F)C(F)(F)C(F)(F)C(F)(F)C(F)(F)C(F)(F)F [D5, Tridecafluoroheptanoicacid]	soluble		
COC(=O)C(F)(F)C(F)(F)C(F)(F)C(F)(F)C(F)(F)C(F)(F)C(F)(F)F [D8, Pentadecafluoromethyloctanoate]	soluble		
CC(=O)C=C(C)[O-].CC(=O)C=C(C)[O-].CC(=O)C=C(C)[O-].[Gd+3] [GdAcAc, Gadolinium acetylacetonate]			Effect of GdAcAc entrapment on particle sizes of cured nanoparticles ([2]; 0.1 mg to 1 mg in emulsifying wax and Brij 72 nanoparticles (2 mg/mL)): little or no effect; Particle size of cured nanoparticles ([2]; cooled to 25° C.): about 50 nm
O=C(O)C(F)(F)C(F)(F)C(F)(F)C(F)(F)C(F)(F)C(F)(F)C(F)(F)F [PDFOA, Pentadecafluorooctanoicacid]	did not dissolve	up to 37.2 % w/w	Final (Ethanol) % w/w Solubilized in Perflubron/Fluorosurfactant (70/3 w/w) ([3]; listed as Pentadecafluorooctanoicacid (PDFOA)): 37.2 % w/w
O=C(O)C(F)(F)C(F)(F)C(F)(F)C(F)(F)C(F)(F)C(F)(F)C(F)(F)C(F)(F)C(F)(F)C(F)(F)C(F)(F)F [Perfluorododecanoicacid (D7), Perfluorododecanoicacid]		59.2 % w/w	
O=C(O)C(F)(F)C(F)(F)C(F)(F)C(F)(F)C(F)(F)C(F)(F)C(F)(F)C(F)(F)C(F)(F)C(F)(F)C(F)(F)C(F)(F)C(F)(F)F [Perfluorotetradecanoicacid (D6), Perfluorotetradecanoicacid]		66.6 % w/w	
ASF-pal: asialofetuin derivatized with about 12 palmitate arms per molecule, hepatocyte-specific ligand			Size of micelles formed alone in water ([2]; 67 μg/mL): 3–15 nm; Size of larger aggregates formed alone in water ([2]; 1340 μg/mL): 40–300 nm; Size of micelles formed alone in water ([2]; 1340 μg/mL): 3–10 nm; Effect of adding ASF-pal on particle size of cured nanoparticles ([2]; ASF-pal added to 200 μg nanoparticles per mL, 1 hour at 25° C.): only a small effect
